Target: human isoprenylcysteine carboxyl methyltransferase (hIcmt) (Homo sapiens, UniProt O60725)
Assay: vapor diffusion assay
Assay type: biochemical
Conditions: VDA

Chain of human isoprenylcysteine carboxyl methyltransferase (hIcmt) (O60725 whole entry, the tested form may be a part): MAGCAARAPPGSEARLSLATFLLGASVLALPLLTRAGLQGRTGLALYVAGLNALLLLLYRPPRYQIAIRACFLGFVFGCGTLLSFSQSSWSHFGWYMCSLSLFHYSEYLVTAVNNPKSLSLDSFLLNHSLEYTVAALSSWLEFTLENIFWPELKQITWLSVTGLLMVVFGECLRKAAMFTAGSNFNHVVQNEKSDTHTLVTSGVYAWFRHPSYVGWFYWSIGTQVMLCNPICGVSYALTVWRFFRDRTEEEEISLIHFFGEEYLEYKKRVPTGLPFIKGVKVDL

CC(C)=CCC/C(C)=C/CC/C(C)=C/CSC[C@H](NS(=O)(=O)c1c(C)c(C)c(C)c(C)c1C)C(=O)O [Compound 6a]
hIcmt inhibition in words: poor hIcmt inhibitors

COC(=O)[C@H](CSC/C=C(\C)CC/C=C(\C)CCC=C(C)C)NS(=O)(=O)c1cccs1 [Compound 10]
hIcmt inhibition in words: remarkably poor hIcmt inhibitor

Source: article PMC3401633 (Bioorganic & medicinal chemistry letters, 2011)
